Experimental data as given in ChEMBL document CHEMBL5241131, “2-Anilino-4-(1-methyl-1H-pyrazol-4-yl)pyrimidine-derived CDK2 inhibitors as anticancer agents: Design, synthesis & evaluation” (Bioorg Med Chem, 2023).
Calls of active or inactive are those of the source. The calls are words filed in the database; no cut-off is given here.

Key:
U-937 = experiment: Antiproliferative activity against human U-937 cells assessed as inhibition of cell growth incubated for 72 hrs by MTT assay; type: functional
[1] = biological target: Cyclin-dependent kinase 2/cyclin E (Homo sapiens, UniProt P24941); experiment: Inhibition of CDK2/cyclin E (unknown origin) assessed as inhibition constant incubated for 30 to 60 mins presence of dithiothreitol by Cheng-Prusoff equation analysis; type: protein-complex assay
HCT-116 [2] = experiment: Induction of apoptosis in human HCT-116 cells assessed as late apoptotic cells at 1 uM incubated for 72 hrs by AnnexinV-FITC/propidium iodide staining based flow cytometry (reference value: 2.91%); type: functional
CDK9/cyclin T1 = CDK9/cyclin T1 (Homo sapiens, UniProt P50750); experiment: Inhibition of CDK9/cyclin T1 (unknown origin) assessed as inhibition constant incubated for 30 to 60 mins presence of dithiothreitol by Cheng-Prusoff equation analysis; type: protein-complex assay
MV4-11 = experiment: Antiproliferative activity against human MV4-11 cells assessed as inhibition of cell growth incubated for 72 hrs by MTT assay; type: functional
HCT-116 [3] = experiment: Induction of apoptosis in human HCT-116 cells assessed as viable cells at 1 uM incubated for 72 hrs by AnnexinV-FITC/propidium iodide staining based flow cytometry (reference value: 93.43%); type: functional; conditions: read-out: Activity
HCT-116 [4] = experiment: Induction of apoptosis in human HCT-116 cells assessed as increase in cleaved PARP level at 0.5 to 1 uM incubated for 24 hrs by Western blot analysis; type: functional, cell-based; conditions: dose 0.5-1 µM
HCT-116 [5] = experiment: Induction of cell cycle arrest in human HCT-116 cells assessed as accumulation of cells at sub G1 phase at 1 uM incubated for 24 hrs by propidium iodide staining based flow cytometry (reference value: 0.24%); type: functional
A2780 = experiment: Antiproliferative activity against human A2780 cells assessed as inhibition of cell growth incubated for 72 hrs by MTT assay; type: functional
COLO 205 = experiment: Antiproliferative activity against human COLO 205 cells assessed as inhibition of cell growth incubated for 72 hrs by MTT assay; type: functional
NCI-H460 = experiment: Antiproliferative activity against human NCI-H460 cells assessed as inhibition of cell growth incubated for 72 hrs by MTT assay; type: functional
[6] = biological target: Cyclin-dependent kinase 5/CDK5 activator 1 (Homo sapiens, UniProt Q00535); experiment: Inhibition of CDK5/p25 (unknown origin) assessed as inhibition constant incubated for 30 to 60 mins presence of dithiothreitol by Cheng-Prusoff equation analysis; type: protein-complex assay
HCT-116 [7] = experiment: Induction of apoptosis in human HCT-116 cells assessed as necrotic cells at 0.5 uM incubated for 72 hrs by AnnexinV-FITC/propidium iodide staining based flow cytometry (Rvb =0.71%); type: functional
HCT-116 [8] = experiment: Induction of cell cycle arrest in human HCT-116 cells assessed as accumulation of cells at S phase at 1 uM incubated for 24 hrs by propidium iodide staining based flow cytometry (reference value: 18.01%); type: functional
NCI-H82 = experiment: Antiproliferative activity against human NCI-H82 cells assessed as inhibition of cell growth incubated for 72 hrs by MTT assay; type: functional
HCT-116 [9] = experiment: Induction of cell cycle arrest in human HCT-116 cells assessed as accumulation of cells at G2/M phase at 1 uM incubated for 24 hrs by propidium iodide staining based flow cytometry (reference value: 28.37%); type: functional
KM12 = experiment: Antiproliferative activity against human KM12 cells assessed as inhibition of cell growth incubated for 72 hrs by MTT assay; type: functional
[10] = biological target: Cyclin-dependent kinase 2 (Homo sapiens) (UniProt P24941); experiment: Inhibition of CDK2 in human HCT-116 cells assessed as reduction in phosphorylation at Thr821 residue incubated for 24 hrs by Western blot analysis; type: cell-based; conditions: dose 0.5-1 µM
HCT-116 [11] = experiment: Induction of cell cycle arrest in human HCT-116 cells assessed as accumulation of cells at G1 phase at 0.5 uM incubated for 24 hrs by propidium iodide staining based flow cytometry (reference value: 51.33%); type: functional
HT-29 = experiment: Antiproliferative activity against human HT-29 cells assessed as inhibition of cell growth incubated for 72 hrs by MTT assay; type: functional
U-251 = experiment: Antiproliferative activity against human U-251 cells assessed as inhibition of cell growth incubated for 72 hrs by MTT assay; type: functional
OV-90 = experiment: Antiproliferative activity against human OV-90 cells assessed as inhibition of cell growth incubated for 72 hrs by MTT assay; type: functional
HCT-116 [12] = experiment: Induction of apoptosis in human HCT-116 cells assessed as viable cells at 0.5 uM incubated for 72 hrs by AnnexinV-FITC/propidium iodide staining based flow cytometry (reference value: 93.43%); type: functional; conditions: read-out: Activity
HCT-116 [13] = experiment: Antiproliferative activity against human HCT-116 cells assessed as inhibition of cell growth incubated for 72 hrs by MTT assay; type: functional
[14] = Antiproliferative activity against human COV318 cells assessed as inhibition of cell growth incubated for 72 hrs by MTT assay; type: functional
[15] = biological target: Cyclin-dependent kinase 2 (Homo sapiens) (UniProt P24941); experiment: Inhibition of CDK2 in human HCT-116 cells assessed as reduction in phosphorylation at Serine 807/811 residue incubated for 24 hrs by Western blot analysis; type: cell-based; conditions: dose 0.5-1 µM
HCT-116 [16] = experiment: Induction of apoptosis in human HCT-116 cells assessed as necrotic cells at 1 uM incubated for 72 hrs by AnnexinV-FITC/propidium iodide staining based flow cytometry (Rvb =0.71%); type: functional
MDA-MB-231 = experiment: Antiproliferative activity against human MDA-MB-231 cells assessed as inhibition of cell growth incubated for 72 hrs by MTT assay; type: functional
OAW-28 = experiment: Antiproliferative activity against human OAW-28 cells assessed as inhibition of cell growth incubated for 72 hrs by MTT assay; type: functional
[17] = biological target: Cyclin-dependent kinase 1/cyclin B (Homo sapiens, UniProt P06493); experiment: Inhibition of CDK1/Cyclin B (unknown origin) assessed as inhibition constant incubated for 30 to 60 mins presence of dithiothreitol by Cheng-Prusoff equation analysis; type: protein-complex assay
HCT-116 [18] = experiment: Induction of cell cycle arrest in human HCT-116 cells assessed as accumulation of cells at G1 phase at 1 uM incubated for 24 hrs by propidium iodide staining based flow cytometry (reference value: 51.33%); type: functional
HCT-116 [19] = experiment: Induction of apoptosis in human HCT-116 cells assessed as early apoptotic cells at 0.5 uM incubated for 72 hrs by AnnexinV-FITC/propidium iodide staining based flow cytometry (reference value: 2.95%); type: functional
OVCAR-5 = experiment: Antiproliferative activity against human OVCAR-5 cells assessed as inhibition of cell growth incubated for 72 hrs by MTT assay; type: functional
HCT-116 [20] = experiment: Induction of cell cycle arrest in human HCT-116 cells assessed as accumulation of cells at S phase at 0.5 uM incubated for 24 hrs by propidium iodide staining based flow cytometry (reference value: 18.01%); type: functional
HCT-116 [21] = experiment: Induction of apoptosis in human HCT-116 cells assessed as early apoptotic cells at 1 uM incubated for 72 hrs by AnnexinV-FITC/propidium iodide staining based flow cytometry (reference value: 2.95%); type: functional
HCT-116 [22] = experiment: Downregulation of CDC25B expression in human HCT-116 cells at 0.5 to 1 uM incubated for 24 hrs by Western blot analysis; type: functional, cell-based; conditions: dose 0.5-1 µM
[23] = Antiproliferative activity against human COV504 cells assessed as inhibition of cell growth incubated for 72 hrs by MTT assay; type: functional
HCT-116 [24] = experiment: Induction of DNA damage in human HCT-116 cells assessed as increase in H2AX phosphorylation at Ser139 residue at 0.5 to 1 uM incubated for 24 hrs by Western blot analysis; type: functional, cell-based; conditions: dose 0.5-1 µM
HCT-116 [25] = experiment: Induction of cell cycle arrest in human HCT-116 cells assessed as accumulation of cells at sub G1 phase at 0.5 uM incubated for 24 hrs by propidium iodide staining based flow cytometry (reference value: 0.24%); type: functional
HCT-116 [26] = experiment: Induction of apoptosis in human HCT-116 cells assessed as late apoptotic cells at 0.5 uM incubated for 72 hrs by AnnexinV-FITC/propidium iodide staining based flow cytometry (reference value: 2.91%); type: functional
ES-2 = experiment: Antiproliferative activity against human ES2 cells assessed as inhibition of cell growth incubated for 72 hrs by MTT assay; type: functional
HCT-116 [27] = experiment: Induction of cell cycle arrest in human HCT-116 cells assessed as accumulation of cells at G2/M phase at 0.5 uM incubated for 24 hrs by propidium iodide staining based flow cytometry (reference value: 28.37%); type: functional

Cyclin-dependent kinase 5/CDK5 activator 1, sequence (Q00535 whole entry): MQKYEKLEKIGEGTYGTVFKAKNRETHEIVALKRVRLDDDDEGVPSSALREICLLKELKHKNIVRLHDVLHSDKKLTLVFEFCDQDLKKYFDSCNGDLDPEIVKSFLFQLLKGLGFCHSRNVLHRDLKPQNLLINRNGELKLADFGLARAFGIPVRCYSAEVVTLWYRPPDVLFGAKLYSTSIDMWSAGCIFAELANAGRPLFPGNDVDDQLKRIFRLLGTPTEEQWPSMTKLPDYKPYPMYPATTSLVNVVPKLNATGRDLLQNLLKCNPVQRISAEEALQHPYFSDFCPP
Cyclin-dependent kinase 5/CDK5 activator 1, sequence (Q15078 whole entry, further chain): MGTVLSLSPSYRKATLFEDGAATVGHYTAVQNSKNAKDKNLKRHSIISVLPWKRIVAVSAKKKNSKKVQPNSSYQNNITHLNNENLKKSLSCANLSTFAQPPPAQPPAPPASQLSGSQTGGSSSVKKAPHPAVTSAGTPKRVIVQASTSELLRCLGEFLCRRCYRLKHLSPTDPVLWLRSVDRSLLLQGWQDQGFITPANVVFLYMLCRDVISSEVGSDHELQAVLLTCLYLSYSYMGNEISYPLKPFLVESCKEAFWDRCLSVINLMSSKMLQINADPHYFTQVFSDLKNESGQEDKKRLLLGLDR
CDK9/cyclin T1, sequence (O60563 whole entry): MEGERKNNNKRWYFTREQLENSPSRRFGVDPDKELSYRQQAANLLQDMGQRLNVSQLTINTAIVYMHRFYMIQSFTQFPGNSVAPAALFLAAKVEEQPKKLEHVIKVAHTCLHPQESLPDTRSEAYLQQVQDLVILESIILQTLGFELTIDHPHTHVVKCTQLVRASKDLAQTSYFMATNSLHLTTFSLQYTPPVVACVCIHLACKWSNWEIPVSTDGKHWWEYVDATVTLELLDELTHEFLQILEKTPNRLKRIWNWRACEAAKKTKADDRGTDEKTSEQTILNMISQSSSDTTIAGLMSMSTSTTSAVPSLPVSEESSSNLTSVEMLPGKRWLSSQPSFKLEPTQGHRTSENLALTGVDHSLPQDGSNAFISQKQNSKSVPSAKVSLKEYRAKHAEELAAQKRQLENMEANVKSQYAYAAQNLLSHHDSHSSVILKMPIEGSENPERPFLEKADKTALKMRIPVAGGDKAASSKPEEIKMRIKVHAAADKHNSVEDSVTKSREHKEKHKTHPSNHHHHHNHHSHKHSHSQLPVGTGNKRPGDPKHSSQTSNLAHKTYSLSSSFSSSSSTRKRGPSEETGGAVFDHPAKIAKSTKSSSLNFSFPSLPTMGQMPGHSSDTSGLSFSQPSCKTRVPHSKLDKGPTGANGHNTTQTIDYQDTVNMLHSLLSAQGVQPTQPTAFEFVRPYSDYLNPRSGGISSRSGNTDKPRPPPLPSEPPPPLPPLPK
CDK9/cyclin T1, sequence (P50750 whole entry): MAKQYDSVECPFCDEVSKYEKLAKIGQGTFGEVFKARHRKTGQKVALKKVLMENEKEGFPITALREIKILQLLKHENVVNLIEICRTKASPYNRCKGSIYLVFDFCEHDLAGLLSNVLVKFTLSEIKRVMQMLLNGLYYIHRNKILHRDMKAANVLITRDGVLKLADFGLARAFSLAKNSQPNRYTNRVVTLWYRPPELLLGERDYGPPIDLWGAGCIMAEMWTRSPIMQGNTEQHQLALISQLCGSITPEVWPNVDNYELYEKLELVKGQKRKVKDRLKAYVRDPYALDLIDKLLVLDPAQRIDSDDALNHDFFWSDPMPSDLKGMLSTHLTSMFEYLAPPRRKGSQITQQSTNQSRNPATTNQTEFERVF

Cn1cc(-c2nc(Nc3ccc(S(N)(=O)=O)cc3)ncc2Cl)cn1
GI50 (U-937): 0.145 µM
Ki [1]: 0.001 µM
Activity (HCT-116 [2]): 5.01%
Ki (CDK9/cyclin T1): 0.017 µM
GI50 (MV4-11): 0.088 µM
viability at 1 µM (HCT-116 [3]): 78.4%
Activity (HCT-116 [4]): Active
Activity (HCT-116 [5]): 2.11%
GI50 (A2780): 0.074 µM
GI50 (COLO 205): 0.194 µM
GI50 (NCI-H460): 0.527 µM
Ki [6]: 0.033 µM
Activity (HCT-116 [7]): 1.19%
Activity (HCT-116 [8]): 18.5%
GI50 (NCI-H82): 0.183 µM
Activity (HCT-116 [9]): 52.06%
GI50 (KM12): 0.558 µM
inhibition [10]: Dose-Dependent Effect
Activity (HCT-116 [11]): 4.24%
GI50 (HT-29): 0.291 µM
GI50 (U-251): 0.695 µM
GI50 (OV-90): 0.444 µM
viability at 0.5 µM (HCT-116 [12]): 77%
GI50 (HCT-116 [13]): 0.186 µM
GI50 [14]: 0.545 µM
inhibition [15]: Dose-Dependent Effect
Activity (HCT-116 [16]): 1.83%
GI50 (MDA-MB-231): 0.472 µM
GI50 (OAW-28): 0.78 µM
Ki [17]: 0.005 µM
Activity (HCT-116 [18]): 27.94%
Activity (HCT-116 [19]): 12.2%
GI50 (OVCAR-5): 0.108 µM
Activity (HCT-116 [20]): 7.94%
Activity (HCT-116 [21]): 4.78%
Activity (HCT-116 [22]): Active
GI50 [23]: 0.768 µM
Activity (HCT-116 [24]): inactive
Activity (HCT-116 [25]): 0.51%
Activity (HCT-116 [26]): 9.6%
GI50 (ES-2): 0.285 µM
Activity (HCT-116 [27]): 86.28%
